# How the values were obtained:
# IPEC-J2 cells [1] = test: Trans-epithelial resistance (TER) of IPEC-J2 cells under heat stress; format: cell-based, pig; conditions: 300 μM, heat stress 41.5° C.; for trans-epithelial resistance versus un-treated heat stress cells: FIG. 2
# Protocol: FIG. 2 is a chart of the effect of 300 μM concentration of different test compounds on the transepithelial resistance (TER) values of IPEC-J2 cells under heat stress conditions.
# When animals undergo heat stress, the increased temperature leads to damage of the epithelial layer as well as withdrawal of tight junction proteins to the cytoplasm of the epithelial cells, thus compromising the tight junctions. The compromised tight junctions allow for toxins and other inflammatory substances to enter the systemic circulation. […] As reported in FIG. 2, cells were treated with the test compounds and incubated at 41.5° C. (Con-TN) Control-Thermoneutral conditions—37° C. (CON—HS)—Control-Heat Stress conditions—41.5° C. (Zn Sulf) 300 μM Zinc Sulfate under Heat Stress Conditions—41.5° C. (ZBA) 300 μM ZBA under Heat Stress Conditions—41.5° C. (CaBA) 300 μM Calcium and Butyric Acid Salt under Heat Stress Conditions—41.5° C.
# IPEC-J2 cells [2] = conditions: 1 mM, normal conditions, vs control, FIG. 1
compound,measurement,setting,value
O=S(=O)([O-])[O-].[Zn+2] [Zinc Sulfate],trans-epithelial resistance versus un-treated heat stress cells,IPEC-J2 cells [1],do not improve the trans-epithelial resistance
same,"trans-epithelial resistance (TER), 0 h",IPEC-J2 cells [1],1.00
same,"trans-epithelial resistance (TER), 12 h",IPEC-J2 cells [1],1.67
same,"trans-epithelial resistance (TER), 24 h",IPEC-J2 cells [1],1.89
same,"trans-epithelial resistance (TER), 36 h",IPEC-J2 cells [1],2.19
same,"trans-epithelial resistance (TER), 48 h",IPEC-J2 cells [1],2.31
Calcium and Butyric Acid Salt [Calcium Butyric Acid Salt],trans-epithelial resistance versus un-treated heat stress cells,IPEC-J2 cells [1],do not improve the trans-epithelial resistance
same,"trans-epithelial resistance (TER), 0 h",IPEC-J2 cells [1],1.00
same,"trans-epithelial resistance (TER), 12 h",IPEC-J2 cells [1],1.58
same,"trans-epithelial resistance (TER), 24 h",IPEC-J2 cells [1],1.74
same,"trans-epithelial resistance (TER), 36 h",IPEC-J2 cells [1],1.96
same,"trans-epithelial resistance (TER), 48 h",IPEC-J2 cells [1],2.10
"CCCC(=O)[O-].CCCC(=O)[O-].[Zn+2] [ZBA, zinc salt of butyric acid in a molar ratio of 1:2]",trans-epithelial resistance,IPEC-J2 cells [2],increased trans-epithelial resistance
same,trans-epithelial resistance versus un-treated heat stress cells,IPEC-J2 cells [1],improves the trans-epithelial resistance to the level of cells grown that are grown at thermoneutral conditions
same,"trans-epithelial resistance (TER), 0 h",IPEC-J2 cells [1],1.00
same,"trans-epithelial resistance (TER), 12 h",IPEC-J2 cells [1],2.04
same,"trans-epithelial resistance (TER), 24 h",IPEC-J2 cells [1],2.24
same,"trans-epithelial resistance (TER), 36 h",IPEC-J2 cells [1],2.60
same,"trans-epithelial resistance (TER), 48 h",IPEC-J2 cells [1],2.76

# Source: US10292999B2, “Treatment of enteric stress from heat and infection in humans and animals by supplementation with zinc and butyric acid” (Kemin Industries, Inc., priority 2015, dated 2019)
